# In ChEMBL document CHEMBL1201862, “PubChem BioAssay data set” (2004):
#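 Compound exposure: 48 hours, 5 concentrations, 96-well plates. Here, GI50 denotes the concentration required for 50% inhibition of growth.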 Calls of active or inactive are those of the source. Rule as the data show it: active = GI50 up to about 1.1 µM and inactive = higher.
# Key:
# Assay in all cases: NCI anticancer screen, dose series, 48 h
# A498 = tested on: A498
# A549 = tested on: A549
# CAKI-1 = tested on: CAKI-1
# CCRF-CEM = tested on: CCRF-CEM
# COLO 205 = tested on: COLO 205
# DLD-1 = tested on: DLD-1
# DMS-114 = tested on: DMS-114
# DMS-273 = tested on: DMS-273
# EKVX = tested on: EKVX
# HCC 2998 = tested on: HCC 2998
# HCT-116 = tested on: HCT-116
# HCT-15 = tested on: HCT-15
# HL-60 = tested on: HL-60
# HOP-18 = tested on: HOP-18
# HOP-62 = tested on: HOP-62
# HOP-92 = tested on: HOP-92
# HT-29 = tested on: HT-29
# IGROV-1 = tested on: IGROV-1
# K562 = tested on: K562
# KM-20L2 = tested on: KM-20L2
# KM12 = tested on: KM12
# LOX IMVI = tested on: LOX IMVI
# M19-MEL = tested on: M19-MEL
# MCF7 = tested on: MCF7
# MOLT-4 = tested on: MOLT-4
# Malme-3M = tested on: Malme-3M
# NCI-H226 = tested on: NCI-H226
# NCI-H23 = tested on: NCI-H23
# NCI-H460 = tested on: NCI-H460
# NCI-H522 = tested on: NCI-H522
# NCI/ADR-RES = tested on: NCI/ADR-RES
# OVCAR-3 = tested on: OVCAR-3
# OVCAR-4 = tested on: OVCAR-4
# OVCAR-5 = tested on: OVCAR-5
# OVCAR-8 = tested on: OVCAR-8
# RPMI-8226 = tested on: RPMI-8226
# RXF 393 = tested on: RXF 393
# SF-268 = tested on: SF-268
# SF-295 = tested on: SF-295
# SF-539 = tested on: SF-539
# SK-MEL-28 = tested on: SK-MEL-28
# SK-MEL-2 = tested on: SK-MEL-2
# SK-MEL-5 = tested on: SK-MEL-5
# SK-OV-3 = tested on: SK-OV-3
# SN12C = tested on: SN12C
# SNB-19 = tested on: SNB-19
# SNB-75 = tested on: SNB-75
# SNB-78 = tested on: SNB-78
# SW-620 = tested on: SW-620
# U-251 = tested on: U-251
# UACC-257 = tested on: UACC-257
# UACC-62 = tested on: UACC-62
# UO-31 = tested on: UO-31
# XF498 = tested on: XF498
structure (smiles),measurement,setting,value
CN1CCN(P2(=S)Oc3ccc4ccccc4c3-c3c(ccc4ccccc34)O2)CC1,GI50,A498,52.5 µM (inactive)
same,GI50,A549,40.3 µM (inactive)
same,GI50,CAKI-1,15.4 µM (inactive)
same,GI50,CCRF-CEM,29.8 µM (inactive)
same,GI50,COLO 205,16.5 µM (inactive)
same,GI50,DLD-1,34.6 µM (inactive)
same,GI50,DMS-114,29.6 µM (inactive)
same,GI50,DMS-273,22.4 µM (inactive)
same,GI50,EKVX,29.6 µM (inactive)
same,GI50,HCC 2998,21 µM (inactive)
same,GI50,HCT-116,32.7 µM (inactive)
same,GI50,HCT-15,28.7 µM
same,GI50,HL-60,13.1 µM (inactive)
same,GI50,HOP-18,> 65.2 µM (inactive)
same,GI50,HOP-62,26.3 µM (inactive)
same,GI50,HOP-92,13.6 µM (inactive)
same,GI50,HT-29,19.6 µM (inactive)
same,GI50,IGROV-1,53.1 µM (inactive)
same,GI50,K562,20.7 µM (inactive)
same,GI50,KM-20L2,22.8 µM (inactive)
same,GI50,KM12,21.6 µM (inactive)
same,GI50,LOX IMVI,18.9 µM (inactive)
same,GI50,M19-MEL,30.3 µM (inactive)
same,GI50,MCF7,13.6 µM (inactive)
same,GI50,MOLT-4,15.1 µM (inactive)
same,GI50,Malme-3M,21.4 µM (inactive)
same,GI50,NCI-H226,26.2 µM (inactive)
same,GI50,NCI-H23,37.5 µM (inactive)
same,GI50,NCI-H460,19.5 µM (inactive)
same,GI50,NCI-H522,24.2 µM (inactive)
same,GI50,NCI/ADR-RES,28.7 µM (inactive)
same,GI50,OVCAR-3,27.9 µM (inactive)
same,GI50,OVCAR-4,36.6 µM (inactive)
same,GI50,OVCAR-5,54.7 µM (inactive)
same,GI50,OVCAR-8,37.2 µM (inactive)
same,GI50,RPMI-8226,7.8 µM (inactive)
same,GI50,RXF 393,25.6 µM (inactive)
same,GI50,SF-268,38.4 µM (inactive)
same,GI50,SF-295,34.9 µM (inactive)
same,GI50,SF-539,21.5 µM (inactive)
same,GI50,SK-MEL-28,41.1 µM (inactive)
same,GI50,SK-MEL-2,18.8 µM (inactive)
same,GI50,SK-MEL-5,22.2 µM (inactive)
same,GI50,SK-OV-3,> 71.3 µM (inactive)
same,GI50,SN12C,33.5 µM (inactive)
same,GI50,SNB-19,39.6 µM (inactive)
same,GI50,SNB-75,37.5 µM (inactive)
same,GI50,SNB-78,50.4 µM (inactive)
same,GI50,SW-620,39 µM (inactive)
same,GI50,U-251,32.7 µM (inactive)
same,GI50,UACC-257,29.7 µM (inactive)
same,GI50,UACC-62,34.5 µM (inactive)
same,GI50,UO-31,18.4 µM (inactive)
same,GI50,XF498,28.8 µM (inactive)
